Assay results: paper PMC8426295, “Cytotoxic and radiosensitising effects of a novel thioredoxin reductase inhibitor in breast cancer” (Investigational New Drugs, 2021)

Legend:
[1] = biological target: T1, TrxR (Homo sapiens, UniProt Q16881); assay: Thioredoxin reductase activity assay (insulin reduction) on lysates of drug-treated breast cancer cells; assay type: cell-based
T1 sequence (Q16881 1-649): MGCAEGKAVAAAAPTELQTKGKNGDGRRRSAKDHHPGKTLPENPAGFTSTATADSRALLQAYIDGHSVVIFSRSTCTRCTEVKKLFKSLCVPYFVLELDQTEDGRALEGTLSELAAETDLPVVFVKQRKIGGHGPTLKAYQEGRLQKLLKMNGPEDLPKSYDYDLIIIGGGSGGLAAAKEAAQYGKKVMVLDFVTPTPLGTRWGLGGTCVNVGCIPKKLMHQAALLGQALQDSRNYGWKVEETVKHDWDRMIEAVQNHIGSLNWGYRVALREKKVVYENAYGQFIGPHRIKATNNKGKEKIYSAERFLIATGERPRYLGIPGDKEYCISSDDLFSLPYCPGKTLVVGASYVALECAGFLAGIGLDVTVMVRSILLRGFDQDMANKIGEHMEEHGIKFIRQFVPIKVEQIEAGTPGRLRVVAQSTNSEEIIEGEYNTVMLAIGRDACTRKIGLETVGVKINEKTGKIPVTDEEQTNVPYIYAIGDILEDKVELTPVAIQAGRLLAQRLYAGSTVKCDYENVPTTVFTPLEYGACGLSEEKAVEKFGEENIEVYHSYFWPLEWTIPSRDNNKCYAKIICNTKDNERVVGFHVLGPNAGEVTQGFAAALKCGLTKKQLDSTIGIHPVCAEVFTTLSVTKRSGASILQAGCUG
Method: TrxR enzyme activity was assessed using an insulin reduction assay. Briefly, 2 × 10^6 cells were seeded, in triplicate, in 75c m^2 tissue culture flasks. After 24 h, sub-confluent cells were treated with either IQ9 (0–1000 nM) or 1000 nM auranofin (as a positive control) for 4 or 48 h, then trypsinised, washed, and resuspended in M-PER™ Mammalian Protein Extraction Reagent (ThermoFisher, USA) supplemented with 1X Halt protease inhibitor and EDTA. Protein concentration was determined using the Bradford assay. 80 μg of protein lysates isolated from each treatment conditions and reaction mix (HE buffer (100 mM HEPES pH 7.2, 5 mM EDTA), 20 μM Trx, 1.7 mM insulin, 10 mM β-NADPH) were added to the 96-well plate and incubated for 1 h at 37 °C. The reaction was stopped by adding stop buffer containing 6 M guanidine hydrochloride, 50 mM Tris, and 10 mM DTNB (Sigma, UK), with a final pH of 8.0. The plate was read at room temperature using a BMG Fluostar Optima Microplate Reader at 412 nm wavelength. The TrxR activity was expressed as the percentage of control, no drug-treated.

[2] = system: MCF-7 cells; assay: Cell proliferation assay (cell count); assay type: cell-based; settings: Homo sapiens, MCF7, 48 h
Method: (§1) 1 × 10^5 cells (2 × 10^5 for T47D’s) were seeded, in triplicate, in 6-well plates and incubated overnight before being treated with IQ9 (0–5000 nM) or doxorubicin (400–600 nM) (positive control and comparator). Total cells were counted after 48 h using a haemocytometer. The total cell count in drug treatment wells was normalised as a percentage of the total cells in vehicle control wells.
(§2) IC50 values were calculated from dose-response curves using an SPSS regression model between inhibition ratios and concentration gradients. The radiobiological parameters: alpha (α), beta (β), α/β ratio, and surviving fraction at 2 Gy (SF2) were extracted from the survival curves fitted using the LQ model. All results are presented as average ± standard deviation (SD) of three independent experiments, each performed in triplicate. Data were analysed using the student T-test and ANOVA one-way test. Statistical analysis was performed using SPSS 23.0 software. Values of P < 0.05 were considered statistically significant.

[3] = system: MDA-MB-231 cells; assay: Cell proliferation assay (cell count); assay type: cell-based; settings: Homo sapiens, MDA-MB-231, 48 h
Method: as §1, §2

[4] = system: MDA-MB-436 cells; assay: Cell proliferation assay (cell count); assay type: cell-based; settings: Homo sapiens, MDA-MB-436, 48 h
Method: as §1, §2

[5] = system: MDA-MB-468 cells; assay: Cell proliferation assay (cell count); assay type: cell-based; settings: Homo sapiens, MDA-MB-468, 48 h
Method: as §1, §2

[6] = system: T47D cells; assay: Cell proliferation assay (cell count); assay type: cell-based; settings: Homo sapiens, 48 h
Method: as §1, §2

[7] = system: MCF-7 cells; assay: Clonogenic survival assay; assay type: cell-based; settings: Homo sapiens
Method: (§3) 5 × 10^5 cells were seeded in T25 cm^2 tissue culture flasks and incubated overnight. The sub-confluent cells were then treated either for 4-h or 48-h with IQ9 (0–5000 nM) or doxorubicin (10–20 nM). Following drug treatment, cells were collected, counted, and plated at low-density, in triplicate, and incubated, at 37 °C, 5% CO2, undisturbed, for 2 weeks for TNBC cells and 3 weeks for luminal cells, for colony formation. Colonies were fixed (50% methanol in 0.9% saline solution) and stained (0.5% crystal violet solution). Colonies consisting of more than 50 cells were confirmed by microscopy and scored as survivors. The plating efficiency (PE) was calculated as numbers of colonies formed/ numbers of cells plated. For single-agent treatment, drug or radiation, the surviving fraction was calculated as: number of colonies formed/ (numbers of cell plated x PE). For drug radiation combination experiments, cytotoxicity of drug treatment was accounted for by calculating surviving fraction as: number of colonies formed from each radiation dose/ (number of cells plated × PE × surviving fraction of drug-treated cell at 0 Gy).
as §2

[8] = system: MDA-MB-436 cells; assay: Clonogenic survival assay; assay type: cell-based; settings: Homo sapiens
Method: as §3, §2

[9] = system: Txnip; assay: Western blotting of Txnip expression; assay type: cell-based, human; settings: any of the breast cancer cell lines, clonogenic IC50 concentration, 48 h
Method: Cells were treated with IQ9 (clonogenic IC50 concentrations) for 48 h, harvested, and resuspended in 1 mL of RIPA buffer (Sigma, UK) supplemented with 1X Halt phosphatase inhibitor cocktail, protease inhibitor cocktail, and EDTA. Samples were run on an SDS-polyacrylamide gel and transferred onto a 0.2 μm nitrocellulose membrane (GE Healthcare). The membrane was then blocked using 5% milk powder in 0.1% PBS/ Tween20, for 1 h at room temperature and then incubated with primary antibody overnight at 4 °C. Anti-β-actin antibody (Abcam) was used as a loading control. Primary antibodies were rabbit anti-human Trx (Abcam; 1:1000), mouse anti-human antibody (Abcam; 1:500), and rabbit anti-human Txnip (Abcam; 1:500). For Trx and Txnip, bands were detected using an Odyssey FC Imager (LI-COR). Images were obtained and fluorescence intensity quantified using Image Studio Software (version 4). The signals for Trx and Txnip were normalised against β-actin. For TrxR, bands were detected using an Amersham Enhanced Chemiluminescence system (GE Healthcare).

[10] = system: breast cancer cells; assay: Potency against breast cancer cells (IC50 range, comparison of TrxR inhibitors); assay type: cell-based; settings: Homo sapiens; range over the cell lines and assays of this study

## COC1=CC(=O)c2c(c(COc3c(F)cc(F)cc3F)cn2C)C1=O [IQ9]
[1]; 1000 nM, 4 h, all TNBC cell lines
  inhibition of TrxR activity: complete inhibition
[1]; 1000 nM, 4 h, luminal cell lines
  inhibition at 1 µM: ~70%
[1]; 48 h exposure, T47D
  inhibition in TrxR activity: no significant inhibition
[2]
  IC50: 379 ± 42.4 nM
[3]
  IC50: 246 ± 55.3 nM
[4]
  IC50: 171 ± 81.4 nM
[5]
  IC50: 425 ± 155 nM
[6]
  IC50: 1430 ± 255 nM
[7]; MCF7, 4 h
  IC50: 340.5 ± 2.1 nM
[7]; MCF7, 48 h
  IC50: 601 ± 114 nM
[8]; MDA-MB-436, 4 h
  IC50: 195 ± 4.5 nM
[8]; MDA-MB-436, 48 h
  IC50: 236 ± 71.5 nM
[9]
  Txnip expression: not affected
[10]
  IC50: 200 to 2000 nM
